Our source for the LC retention time values is the RepoRT retention time repository (doi:10.1021/ac101825k).

The structures appear in SMILES notation.

This data set can be described thus: RP, Waters Symmetry C18, 100 × 2.1 mm; A: water + 0.1% formic acid, pH 3; B: acetonitrile + 0.1% formic acid, pH 3; gradient (min/%B) 0/5 24/95 29/95 29.1/5. Conditions: stereoisomer not certain.

As for `Oc1cc(O)c2c(c1)OC(c1ccc(O)c(O)c1)C(O)C2` (single isomer, unassigned; (-)) [(-)-Epicatechin], the LC retention time is 7.82 min.
In the case of `COc1cc(C=CC(=O)O)cc(OC)c1OC` [3,4,5-Trimethoxycinnamic_acid] it was 12.3 min; in that of `Cc1cc(=O)oc2cc(OC3OC(C(=O)O)C(O)C(O)C3O)ccc12` (stereo unspecified) [4-Methylumbelliferylglucuronide], 8.77 min.
For `Nc1ncnc2c1ncn2C1OC(CO)C(O)C1O` (stereo unspecified) [Adenosine], the LC retention time was 1.52 min.
As for `O=c1cc(-c2ccc(O)c(-c3c(O)cc(O)c4c(=O)cc(-c5ccc(O)cc5)oc34)c2)oc2cc(O)cc(O)c12` [Amentoflavone], the LC retention time was 14.2 min.
Take `CN1CCc2cccc3c2C1Cc1ccc(O)c(O)c1-3` (stereo unspecified) [Apomorphine]: the LC retention time was 7.2 min.
In the case of `COc1ccc2cc3[n+](cc2c1OC)CCc1cc2c(cc1-3)OCO2` [Berberine], the LC retention time was determined as 9.9 min.
The value for `COc1c2ccoc2cc2oc(=O)ccc12` [Bergapten] was 14.5 min; that for `CN1CCc2cc3c(cc2C1C1OC(=O)c2c1ccc1c2OCO1)OCO3` (stereo unspecified) [Bicuculline] was 8.51 min.
For the compound `COc1ccc(-c2coc3cc(O)cc(O)c3c2=O)cc1` [Biochanin_A], the LC retention time worked out at 16.1 min.
With `CN1Cc2c(ccc3c2OCO3)C2C(O)Cc3cc4c(cc3C21)OCO4` (stereo unspecified) [Chelidonine], the LC retention time was found to be 9.5 min.
`C=CC1CN2CCC1CC2C(O)c1ccnc2ccccc12` (stereo unspecified) [Cinchonine]: the LC retention time was determined as 3.47 min.
With `CCC1CN2CCc3cc(OC)c(OC)cc3C2CC1CC1NCCc2cc(OC)c(OC)cc21` (stereo unspecified) [Emetine], the LC retention time was 7.62 min.
`CCC1OC(=O)C(C)C(OC2CC(C)(OC)C(O)C(C)O2)C(C)C(OC2OC(C)CC(N(C)C)C2O)C(C)(O)CC(C)C(=O)C(C)C(O)C1(C)O` (stereo unspecified) [Erythromycin]: the LC retention time is 11.2 min.
In the case of `O=c1c(-c2ccc(O)cc2)coc2cc(O)cc(O)c12` [Genistein], the LC retention time is 13.1 min.
Take `Cc1nccc2c1[nH]c1ccccc12` [Harmane]: the LC retention time stood at 7.81 min.
In the case of `CC(C)C(NC(=O)Cc1c[nH]c2ccccc12)C(=O)O` (stereo unspecified) [IAA-Val] it was 12.1 min; in that of `O=C(O)c1c[nH]c2ccccc12` [Indole-3-carboxylic_acid], 10.5 min; in that of `O=c1c(O)c(-c2ccc(O)cc2)oc2cc(O)cc(O)c12` [Kaempferol], 13.3 min.
Regarding `c1coc(CNc2ncnc3nc[nH]c23)c1` [Kinetin], the LC retention time was determined as 6.57 min.
Turning to `COc1ccc(CC2c3cc(OC)c(OC)cc3CCN2C)cc1OC` (stereo unspecified) [Laudanosine], the LC retention time turned out to be 8.39 min.
Turning to `CC1OC(OC2C(Oc3cc(O)c4c(c3)OC(c3ccc(O)cc3)CC4=O)OC(CO)C(O)C2O)C(O)C(O)C1O` (stereo unspecified) [Naringin], the LC retention time turned out to be 10.5 min.
As to `NC(=O)c1ccc[n+](C2OC(COP(=O)(O)OP(=O)(O)OCC3OC(n4cnc5c(N)ncnc54)C(O)C3O)C(O)C2O)c1` (stereo unspecified) [Nicotinamide_dinucleotide], the LC retention time was found to be 1.2 min.
As for `NC(Cc1ccccc1)C(=O)O` (stereo unspecified) [Phenylalanine], the LC retention time was 2.27 min.
In the case of `O=C(CCc1ccc(O)cc1)c1c(O)cc(O)cc1OC1OC(CO)C(O)C(O)C1O` (stereo unspecified) [Phlorizin] it was 11.1 min; in that of `O=c1c(O)c(-c2ccc(O)c(O)c2)oc2cc(O)cc(O)c12` [Quercetin], 12.2 min.
With `COC(=O)C1C2CC3c4[nH]c5cc(OC)ccc5c4CCN3CC2CC(OC(=O)c2cc(OC)c(OC)c(OC)c2)C1OC` (stereo unspecified) [Reserpine], the LC retention time was determined as 12.6 min.
As to `Oc1ccc(C=Cc2cc(O)cc(O)c2)cc1` [Resveratrol], the LC retention time turned out to be 11.5 min.
Take `COC1C=COC2(C)Oc3c(C)c(O)c4c(O)c(c(C=NN5CCN(C)CC5)c(O)c4c3C2=O)NC(=O)C(C)=CC=CC(C)C(O)C(C)C(O)C(C)C(OC(C)=O)C1C` (stereo unspecified) [Rifampicin]: the LC retention time was determined as 15.1 min.
Consider `C=C(C)C1Cc2c(ccc3c2OC2COc4cc(OC)c(OC)cc4C2C3=O)O1` (stereo unspecified) [Rotenone], for which the LC retention time was determined as 18 min.
Consider `CC1OC(OCC2OC(Oc3c(-c4ccc(O)c(O)c4)oc4cc(O)cc(O)c4c3=O)C(O)C(O)C2O)C(O)C(O)C1O` (stereo unspecified) [Rutin], for which the LC retention time is 9.72 min.
Take `COc1ccc2c(c1OC)C(=O)OC2C1c2c(cc3c(c2OC)OCO3)CCN1C` (stereo unspecified) [S,R-Noscapine]: the LC retention time was 10 min.
The value for `Cc1cc2nc3cc(C)c(N)cc3[n+](-c3ccccc3)c2cc1N` [Safranin] was 10.9 min.
For `CC1NCCc2cc(O)c(O)cc21` (stereo unspecified) [Salsolinol], the LC retention time was 1.08 min.
In the case of `COc1cc(C=CC(=O)OCC[N+](C)(C)C)cc(OC)c1O` [Sinapine], the LC retention time came to 6.46 min.
For the compound `Oc1ccc(CC2NCCc3cc(O)c(O)cc32)cc1O` (stereo unspecified) [Tetrahydropapaveroline], the LC retention time is 1.14 min.
In the case of `NC(Cc1c[nH]c2ccccc12)C(=O)O` (stereo unspecified) [Tryptophan], the LC retention time amounted to 4.07 min.
For the compound `NCCc1ccc(O)cc1` [Tyramine], the LC retention time was found to be 8.45 min.
`CC1OC(OC2C(c3c(O)cc(O)c4c(=O)cc(-c5ccc(O)cc5)oc34)OC(CO)C(O)C2O)C(O)C(O)C1O` (stereo unspecified) [Vitexin-2''-O-rhamnoside]: the LC retention time is 9.58 min.
Take `COc1cc(O)c(CC=C(C)C)c(O)c1C(=O)C=Cc1ccc(O)cc1` [Xanthohumol]: the LC retention time was 18.5 min.
With `COc1ccccc1C(=O)O` [o-Anisic acid], the LC retention time amounted to 10.1 min.
